In one assay the test system is MCF7. The assay is described as follows: Cytotoxicity against human MCF7 cells by flow cytometric analysis. In kind it is functional, cell-based.
In assay [1] the target is RAC-alpha serine/threonine-protein kinase (Homo sapiens, UniProt P31749). Nature of the assay: Inhibition of Akt phosphorylation in human insulin-stimulated A549 cells incubated for 2 hrs prior to insulin-induction measured after 30 mins by ELISA. In kind it is cell-based. (ELISA stands for enzyme-linked immunosorbent assay.)
RAC-alpha serine/threonine-protein kinase, sequence (P31749 whole entry): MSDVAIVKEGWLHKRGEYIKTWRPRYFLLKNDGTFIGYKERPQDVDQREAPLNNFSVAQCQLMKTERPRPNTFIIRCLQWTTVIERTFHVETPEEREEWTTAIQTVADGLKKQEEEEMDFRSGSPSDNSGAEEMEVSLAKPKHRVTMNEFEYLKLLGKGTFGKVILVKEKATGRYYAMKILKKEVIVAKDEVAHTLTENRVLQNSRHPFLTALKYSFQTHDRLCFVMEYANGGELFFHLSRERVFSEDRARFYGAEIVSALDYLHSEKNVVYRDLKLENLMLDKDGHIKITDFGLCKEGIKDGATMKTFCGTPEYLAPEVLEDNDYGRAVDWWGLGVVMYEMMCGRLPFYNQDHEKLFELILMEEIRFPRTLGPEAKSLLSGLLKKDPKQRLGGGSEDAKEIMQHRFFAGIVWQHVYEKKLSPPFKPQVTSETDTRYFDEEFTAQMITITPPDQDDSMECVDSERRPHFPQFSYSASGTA
The nature of assay [2]: Cytotoxicity against human KATO III cells by flow cytometric analysis. In kind it is functional, cell-based, KATO III cell.
Assay [3] relates to A549. The assay is described as follows: Cytotoxicity against human A549 cells by flow cytometric analysis. In kind it is functional, cell-based.
Assay [4] deals with A549. Nature of the assay: Ratio of edelfosine IC50 to compound IC50 for human A549 cells. In kind it is functional.
The subject of assay [5] is A549. The assay is described as follows: Ratio of perifosine IC50 to compound IC50 for human A549 cells. In kind it is functional.
Assay [6] deals with A549. Nature of the assay: Ratio of miltefosine IC50 to compound IC50 for human A549 cells. In kind it is functional.

Each structure is given as a SMILES string.

For the molecule `CCCCCCCCCCCCCCCCCCCC[C@@]1(C(=O)OCC)CCC[C@H]1OP(=O)([O-])OCC[N+](C)(C)C` (racemic), the IC50 stood at 9.7 µM in the assay with MCF7, 7 µM in assay [1], 11.1 µM in assay [2] and 13.6 µM in the assay with A549 [3].
`CCCCCCCCCCCCCCCCCC[C@@]1(C(=O)OCC)CCC[C@@H]1OP(=O)([O-])OCC[N+](C)(C)C` (racemic): the IC50 is 7.5 µM in the assay with MCF7, 3 µM in assay [1], 9.9 µM in assay [2] and 4.6 µM with A549 [3].
For the molecule `CCCCCCCCCCCCC[C@@]1(C(=O)OCC)CCC[C@@H]1OP(=O)([O-])OCC[N+](C)(C)C` (racemic), the IC50 in the assay with MCF7 was found to be 4.5 µM; in assay [1] it was 6.2 µM; in assay [2], 9.7 µM; in the assay on A549 [3], 2.7 µM.
As to `CCCCCCCCCCCCCCCC[C@@]1(C(=O)OCC)CCC[C@@H]1OP(=O)([O-])OCC[N+](C)(C)C` (racemic), the IC50 in the assay on MCF7 is 11.1 µM; in assay [1] it was 5 µM; in assay [2], 10.6 µM; in the assay with A549 [3], 3.6 µM.
The like results for `CCCCCCCCCCCCCCCCCCCCCC[C@@]1(C(=O)OCC)CCC[C@@H]1OP(=O)([O-])OCC[N+](C)(C)C` (racemic) were, in that order, 7.6 µM, 19.1 µM, 11.4 µM and 17.8 µM.
The like results for `CCCCCCCCCCCCCCCCCC[C@@]1(C(=O)OCC)CCC[C@H]1OP(=O)([O-])OCC[N+](C)(C)C` (racemic) were, in that order, 13.1 µM, 10.9 µM, 15 µM and 6.2 µM.
For the molecule `CCCCCCCCCCCCCCCC[C@@]1(C(=O)OCC)CCC[C@H]1OP(=O)([O-])OCC[N+](C)(C)C` (racemic), the “Ratio IC50” value with A549 [4], in the assay on A549 [5] and in the assay on A549 [6] was 4 in each case. The IC50 with MCF7 came out at 5.6 µM; in assay [1], 2 µM; in assay [2], 7.9 µM; in the assay on A549 [3] it was 1.6 µM.
On to `CCCCCCCCCCCCCCCCCCOCC(COP(=O)([O-])OCC[N+](C)(C)C)OC` (configuration not stated) [EDELFOSINE], for which the IC50 was 9.3 µM in the assay with MCF7, 3.5 µM in assay [1], 12.8 µM in assay [2] and 7.4 µM in the assay on A549 [3].
With `CCCCCCCCCCCCCCCCCCCCCC[C@@]1(C(=O)OCC)CCC[C@H]1OP(=O)([O-])OCC[N+](C)(C)C` (racemic), the IC50 in the assay on MCF7 was 16.8 µM; in assay [1], 5.5 µM; in assay [2] it was 10.4 µM; in the assay on A549 [3], 6.9 µM.
Regarding `CCCCCCCCCCCCC[C@@]1(C(=O)OCC)CCC[C@H]1OP(=O)([O-])OCC[N+](C)(C)C` (racemic), the “Ratio IC50” value with A549 [4], in the assay on A549 [5] and with A549 [6] was 4 throughout. Further, the IC50 is 11.2 µM in the assay with MCF7, 3.1 µM in assay [1], 14.1 µM in assay [2] and 2 µM in the assay on A549 [3].
The molecule `CCCCCCCCCCCCCCCCCCOP(=O)([O-])OC1CC[N+](C)(C)CC1` [PERIFOSINE] showed an IC50 in assay [1] of 5.3 µM. In other words, the single-digit micromolar range.
Same read-out and setting: with `CCCCCCCCCCCCCCCCOP(=O)([O-])OCC[N+](C)(C)C` [MILTEFOSINE] the figure was 9.6 µM.
`CCCCCCCCCCCCCCCCCCCC[C@@]1(C(=O)OCC)CCC[C@@H]1OP(=O)([O-])OCC[N+](C)(C)C` (racemic): the IC50 worked out at 16 µM in the assay with MCF7, 6.9 µM in assay [1], 10.9 µM in assay [2] and 7.2 µM with A549 [3].

The IC50 is the concentration that inhibits the measured activity by half. Read a high IC50 as a need for much substance.
